In patent publication US7049321B2, “Methods and pharmaceutical compositions for treatment of central and peripheral nervous system disorders and compounds useful therefor” (Israel Institute for Biological Research, priority 2002, dated 2006):

Key:
C57BL6J mice = test: Morris water maze in normal hippocampus mice; format: in vivo; settings: for Reversal test, escape latency: AF150(S) 0.5 mg/kg; for Training, path length: AF150(S) only the higher dose; for Reversal test, swimming speed: AF150(S)-0.5 mg/kg, AF267B-1 mg/kg, rivastigmine, nicotine; for Training, swimming speed: mouse, in vivo
Procedure: (§1) Each group of mice was randomly divided into 7 treatment groups (n=12-14/group). […] All tested compounds and saline were administered once a day for 4 days before starting the behavioral testing, and then for the duration of the 5-day experiment, 30 minutes before testing.
(§2) Training: Each mouse was trained for four consecutive days, four trials (one block) per day, in which the platform position remained constant and was located in the center of the southeast quadrant of the pool. Within each block of four trials, each mouse started at each of the starting locations, but the sequence of locations was randomly selected. A trial consisted of placing a mouse by hand into the water facing the wall of the pool at one of four starting locations, north, south, east or west, around the pool's perimeter. Escape latency (the time to find the platform), path length (the distance traveled by the mouse) and speed (the swimming rate of the mouse) were recorded on each trial by the monitoring system.
(§3) For each mouse, the path length, escape latency, and swimming speed of the four trials on each of the 4 training days were grouped into blocks (one block for each day). […] Specific comparisons were performed, using the simple main effects contrasts acalysis, which is specifically suited for testing significant interactions.
(§4) Transfer test. During trial No. 17, on the fourth day, the platform was entirely removed from the pool (a probe trial). In this trial, the mouse was placed into the water for a limited period (30 s), and its spatial bias was measured by recording the relative distribution of escape latency and path length over the four quadrants of the pool.
(§5) Reversal test. During trials 18–21, on the fifth day, the platform position was changed to the northwest quadrant, opposite to the training quadrant. Thus, during reversal learning, the platform location was moved relative to the configuration of objects within the room, but the pool occupied the same place within the room throughout the entire experiment. Testing of the rats and measures taken were the same as in training.
(§6) For each mouse, the escape latency, path length and swimming speed of the reversal test (trials No. 18–21) were grouped into one block.

M1 mAChR = molecular target: T1, M1 mAChR (Rattus norvegicus, UniProt P08482); test: α-APPs secretion in cell cultures stably transfected with the M1 mAChR; format: cell-based; settings: for Emax: read-out: APPs levels, % of maximal effect of carbachol, at 100 μm
T1 construct: expressed in transfected cells; elsewhere rat pheochromocytoma cells
T1 sequence (P08482 1-460): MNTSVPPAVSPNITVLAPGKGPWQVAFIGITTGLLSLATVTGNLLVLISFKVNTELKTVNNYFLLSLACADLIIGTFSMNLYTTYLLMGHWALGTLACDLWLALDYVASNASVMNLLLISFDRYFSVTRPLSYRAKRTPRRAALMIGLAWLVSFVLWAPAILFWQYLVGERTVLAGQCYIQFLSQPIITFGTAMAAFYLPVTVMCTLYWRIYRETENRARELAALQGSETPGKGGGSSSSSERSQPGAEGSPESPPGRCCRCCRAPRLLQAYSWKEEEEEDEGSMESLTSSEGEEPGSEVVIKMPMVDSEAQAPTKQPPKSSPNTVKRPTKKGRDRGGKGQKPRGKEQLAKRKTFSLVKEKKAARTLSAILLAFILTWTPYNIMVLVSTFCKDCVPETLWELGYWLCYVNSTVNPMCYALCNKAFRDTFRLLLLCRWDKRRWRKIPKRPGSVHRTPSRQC
Procedure: Cells were plated in 6 well culture plates and used at the age of 3–5 days after plating. […] Cells exposed to medium alone are referred as controls.
Cell supernatants were collected into Eppendorff tubes containing a cocktail of protease inhibitors (5 units/ml aprotinin, […], […] and 10^−4M Phenylmethylsulfonylfluoride (PMSF, a protease inhibitor); Sigma, USA). The collected media were concentrated with Centricon tubes (Amicon, Beverly, Mass., USA) and kept frozen for α-APPs secretion determination. Equal amounts of protein (50–100 μg) were loaded and separated on 10% sodium dodecyl sulfate-polyacrylamide gel electrophoresis (SDS-PAGE). Followed by western blotting onto nitrocellulose membrane, blocked by fat-free milk, and probed for 24 hours at 4° C., with anti-Alzheimer's precursor protein, A4 monoclonal antibody 22C11 (0.25 μg/ml; Boehringer Mannheim, Germany). The nitrocellulose membranes were washed and incubated for 2 hours at room temperature with peroxidase-linked goat anti-mouse IgG antibodies (Jackson Immunoresearch, USA), followed by extensive washout and staining with enhanced chemiluminescence detection system (Amersham). Quantitative evaluation of the immunoreactive bands, on the exposed films, was performed by video-imaging densitometry (Gel-aid software; Galai Co., Israel). APPs levels were expressed as x-fold increase over basal levels.

C57BL/10SnJ (B10) mice = test: Morris water maze in small hippocampus mice; format: in vivo; settings: for Training, escape latency: 0.5 and 1 mg/kg i.p. (rivastigmine, nicotine 1 mg/kg); for Training, path length: AF150(S) both doses, AF267B the higher dose; for Reversal test, escape latency / Training, swimming speed / Transfer test, spatial bias: mouse, in vivo
Procedure: C57BL/10SnJ (B10) mice were selected due to their small hippocampi and decreased number of hippocampal pyramidal neurons; the cell loss seemed to be associated with poor spatial learning.
as §1, §2, §3, §4, §5, §6

ApoE = ApoE synthesis and secretion in primary type 1 astrocytes; format: cell-based, rat; settings: up to 96 hrs
Procedure: Primary cultures of type 1 astrocytes were derived from the cortex of Sprague Dawley rats. The compounds tested were dissolved in the culture media and added to cells for 24, 48, 72 and 96 hrs. Media was then removed and kept frozen until ApoE protein levels were evaluated by immunoblot analysis as described in Poirier et al Neuroscience 55: 81–90 (1993). Alternatively the methods of Cedazo-Minuez et al [Neurosci 105: 651–661, 2001} may be employed.

trihexyphenidyl rats = test: Passive avoidance in trihexyphenidyl-treated rats; format: in vivo, Wistar rats; settings: 24 h
Text: Trihexyphenidyl is a selective M1 muscarinic antagonist that crosses the blood brain barrier and induces memory and learning impairments (Bymaster et al. J Pharmacol Exp Ther 267: 16–24, 1993. Roldan et al Neurosci. Lett. 230: 93–96, 1997; Kimura et al Brain Res. 834: 6–12, 1999).
Naive Wistar rats were used in the experiments below. The passive avoidance (PA) task is comprised of training (acquisition) phase and a retention phase. In the training procedure each rat was individually placed in the small illuminated compartment and after 60 sec. of familiarization/adaptation, the door to the large compartment was opened and the latency to enter was measured (Initial Latency). Immediately following entry into the dark compartment, the door was closed and inescapable foot shock (0.6 mA for 3 sec) was delivered through the grid floor. A cutoff point of 180 sec was used for initial latency. […] After the acquisition trial the rat was returned to its home cage. Retention of the passive avoidance task was measured 24 h later, by again placing the rat in the light compartment and after a 60 sec adaptation interval, the door was opened and the latency to re-enter the dark compartment was measured. A cutoff point of 300 sec was used for retention latency.

[1] = test system: Rat pheochromocytoma cells transfected with M1 mAChR; format: cell-based; settings: β-A25-35 (10 & 20 μM)
Procedure: Confluent rat pheochromocytoma cells transfected with the M1 mAChR cultures were detached with trypsin, washed and plated in 24-well, 6-well, 60-mm or 100-mm plates that were precoated with rat tail collagen (Sigma, Israel). Several experiments were performed in serum-free medium. For 3-(4,5-dimethylthiazol-2-yl)-2,5-diphenyl-tetrazolium bromide (MTT) assay, cells (1.5×10^4) were plated in 96-well collagen-precoated plates, in serum-free medium, with or without various drugs for 24 hours. For differentiation, cells were grown in the presence of 1% FCS and 1% HS, with addition of 50 ng/ml NGF for 7 days, to cause full differentiation. […] After 7 days, cells were washed and the medium was either replaced to serum-free, or cells were detached and replated in serum-free medium. Cells in serum-free medium were treated either with Aβ peptides that were previously “aged” or with H2O2. Tested compounds were added together with the insults for the indicated time, unless otherwise stated.
Cells were plated in 96-well plates in 100 μl medium. After exposure to various treatments, 10 μl of 5 mg/ml MTT [3-(4,5-dimethylthiazol-2-yl)-2,5-diphenyl-tetrazolium bromide; Sigma, Israel] solution in phosphate-buffered saline (PBS) was added to each well. Plates were incubated for 2 hrs at 37° C. followed by hydrocholoric acid-isopropanol addition (100 μl of 0.04N HCl/isopropanol). Plates were read using ELISA reader at a wavelength of 570 nm.
The MTT assay measures primary early changes within the cells, reflecting the integrity of the electron transport chain and provides a readout of cellular redox activity. This test is a specific, early indicator of the mechanism of β-amyloid-mediated cell death and can be used to detect rapid inhibitory response.

tau proteins = test: tau phosphorylation, AT8 immunoblot; format: cell-based; settings: 100 μM; to the control level
Text: Following the experimental design of Sadot et al., J. Neurochem. […] By linking an M1 agonist to an antioxidant moiety tau phophorylation may be decreased, providing a new therapeutic strategy in a variety of CNS disease states due to combined damage due to oxidative stress and tau hyperphosphorylation.

[2] = test system: rat primary hippocampal cell cultures; test: APPs secretion in rat primary hippocampal cell cultures; format: cell-based; settings: 100 μm
[3] = test system: rat primary cerebral cortex cell cultures; test: APPs secretion in rat primary cortical cell cultures; format: cell-based; settings: 100 μm
[4] = test system: Rat pheochromocytoma cells transfected with M1 mAChR; test: Neurite outgrowth response; format: cell-based; settings: blocked by atropine
Procedure: Rat pheochromocytoma cells transfected with M1 mAChR cells were grown as described in Gurwitz et al, (NeuroReport 6, 485,1995). For determination of neurite outgrowth, cells plated in six-well plates were used 3–5 days after-plating. Growth factors were added 1 day after plating and muscarinic agonists were added for the last 24 hrs.
Cells were observed under an inverted microscope. The percent of cells with neurite longer than cell diameter were scored in three random fields of several hundred cells from each well. Results were expressed as a percent of cells with neurites. Treatments were performed in triplicate cells. Both NGF (50 ng/ml) and EGF (100 ng/ml) were added 1 day after plating. Muscarinic agonists were added 24 hours before scoring.

In the case of `CCN(C)C(=O)Oc1cccc([C@H](C)N(C)C)c1` [rivastigmine, reference compound], the “Reversal test, escape latency” value (C57BL6J mice) was “no significant effect”, the “Training, path length” value (C57BL6J mice) was “neither AF267B nor rivastigmine had any effect” and the “Reversal test, swimming speed” value (C57BL6J mice) was “significantly decreased”. The “Training, swimming speed” value (C57BL6J mice) was “significantly decreased the swimming speed”, the “α-APPs secretion, comparison in words” value (M1 mAChR) was “not effective” and the “Training, escape latency” value (C57BL/10SnJ (B10) mice) was “positively affected”. The “Training, path length” value (C57BL/10SnJ (B10) mice) was “positively affected”, the “Reversal test, escape latency” value (C57BL/10SnJ (B10) mice) was “no significant effect” and the “Training, swimming speed” value (C57BL/10SnJ (B10) mice) was “Neither rivastigmine nor nicotine had any significant effect”. The “Transfer test, spatial bias” value (C57BL/10SnJ (B10) mice) was “complete spatial bias”.

For `CN1CCCC1c1cccnc1` (centres unmarked) [nicotine, reference compound], the “Training, escape latency” value (C57BL6J mice; 0.5 and 1 mg/kg i.p. (rivastigmine, nicotine 1 mg/kg)) was “degraded the performance”, the “Reversal test, escape latency” value (C57BL6J mice) was “no significant effect” and the “Training, path length” value (C57BL6J mice) was “no significant effect”. The “Reversal test, swimming speed” value (C57BL6J mice) was “significantly decreased”, the “Training, swimming speed” value (C57BL6J mice) was “significantly decreased the swimming speed” and the “Training, escape latency” value (C57BL/10SnJ (B10) mice) was “no improving effect”. The “Training, path length” value (C57BL/10SnJ (B10) mice) was “no significant effect”, the “Reversal test, escape latency” value (C57BL/10SnJ (B10) mice) was “no significant effect” and the “Training, swimming speed” value (C57BL/10SnJ (B10) mice) was “Neither rivastigmine nor nicotine had any significant effect”. The “Transfer test, spatial bias” value (C57BL/10SnJ (B10) mice) was “partial spatial bias”.

`CC1OC2(CS1)CN1CCC2CC1` (centres unmarked) [AF102B, reference compound] was tested, and the ApoE production (ApoE) was “inactive” and the Retention latency (trihexyphenidyl rats; 1 mg/kg p.o.) was 234.4 ± 35.3 s.

For `CCC1SC2(CCN(C)CC2)NC1=O` (racemic) [AF267, 2-ethyl-8-methyl-1-thia-4,8-diaza-spiro[4.5]decan-3-one], the “α-APPs secretion, comparison in words” value (M1 mAChR) was “AF267B is more efficacious and more potent than its racemate”.

`CCC1SC2(CCN(C)CC2)N(CCc2c[nH]c3ccccc23)C1=O` (centres unmarked) [AF703, 2-Ethyl-4-[2-(1H-indol-3-yl)-ethyl]-8-methyl-1-thia-4,8-diaza-spiro[4.5]decan-3-one] was tested, and the “Protection against β-A25-35-induced cytotoxicity” value (from here on “Protection”) [1] was “more effective than carbachol and AF267B”.

For “(S)-Ethyl-4-(3-1H-indol-3-yl-propionyl)-8-methyl-1-thia-4,8-diaza-spiro[4.5]decan-3-one [AF704B]”, the “tau phosphorylation (AT8)” value (tau proteins) was “induce dephosphorylation of tau proteins” and the “Protection” value [1] was “more effective than carbachol and AF267B”.

With `O=C1CCCN1CC#CCN1CCCC1` [Oxotremorine, oxotremorine, reference compound] the “APPs secretion, activity in words” value [2] was “inactive” and the “APPs secretion, activity in words” value [3] was “inactive”.

In the case of `CCC1SC2(CCN(C)CC2)N(C(=O)CCc2c[nH]c3ccccc23)C1=O` (racemic) [AF704, 2-Ethyl-4-(3-1H-indol-3-yl-propionyl)-8-methyl-1-thia-4,8-diaza-spiro[4.5]decan-3-one], the Neurotrophic effect [4] was “neurotrophic”, the “tau phosphorylation (AT8)” value (tau proteins) was “induce dephosphorylation of tau proteins” and the Emax (M1 mAChR) was 50%. For the same molecule, the “Protection” value [1] was “more effective than carbachol and AF267B”, the Retention latency (trihexyphenidyl rats; 0.1 mg/kg, po) was 214.70 ± 36.63 s and the Retention latency (trihexyphenidyl rats; 0.5 mg/kg p.o.) was 283.50 ± 17.39 s. It also gave a Retention latency (trihexyphenidyl rats; 1 mg/kg p.o.) of 274.44 ± 26.97 s.

In the case of `CC[C@@H]1SC2(CCN(C)CC2)N(S(=O)(=O)c2ccc(F)cc2)C1=O` [AF700, (S)-2-Ethyl-4-(4-fluoro-benzenesulfonyl)-8-methyl-1-thia-4,8-diaza-spiro[4.5]decan-3-one], the Neurotrophic effect [4] was “neurotrophic”, the Emax (M1 mAChR) was 50% and the “Protection” value [1] was “more effective than carbachol and AF267B”.
